Measurements published in the NIST ThermoML archive (doi:10.1016/j.jct.2005.06.011).

Legend:
[1] = refractive index (Na D-line) (dimensionless); xn = mol fraction of the nth substance listed; conditions: 101 kPa, Liquid
[2] = xn = mol fraction of the nth substance listed; conditions: 101 kPa, Liquid; for speed of sound: Linear variable-path acoustic interferometer

CC1CCCCC1 [methylcyclohexane] + CCO
Conditions | mass density, 298.15 K [kg/m3] | mass density, 303.15 K [kg/m3] | mass density, 308.15 K [kg/m3] | refractive index, 298.15 K | refractive index, 303.15 K | refractive index, 308.15 K | speed of sound, 298.15 K [m/s] | viscosity, 298.15 K [mPa·s] | viscosity, 303.15 K [mPa·s] | viscosity, 308.15 K [mPa·s]
[1], x1 = 0.1023 | – | – | – | 1.371 | 1.3686 | 1.3662 | – | – | – | –
[1], x1 = 0.2031 | – | – | – | 1.3796 | 1.3764 | 1.3744 | – | – | – | –
[1], x1 = 0.304 | – | – | – | 1.3881 | 1.3853 | 1.3825 | – | – | – | –
[1], x1 = 0.405 | – | – | – | 1.3949 | 1.3921 | 1.3893 | – | – | – | –
[1], x1 = 0.5061 | – | – | – | 1.4017 | 1.3989 | 1.3961 | – | – | – | –
[1], x1 = 0.6029 | – | – | – | 1.4068 | 1.4038 | 1.4008 | – | – | – | –
[1], x1 = 0.6998 | – | – | – | 1.412 | 1.4087 | 1.4054 | – | – | – | –
[1], x1 = 0.8016 | – | – | – | 1.417 | 1.4135 | 1.41 | – | – | – | –
[1], x1 = 0.9034 | – | – | – | 1.4192 | 1.4169 | 1.4146 | – | – | – | –
[1], x1 = 1 | – | – | – | 1.4217 | 1.4192 | 1.4163 | – | – | – | –
[2], x1 = 0.1023 | 779.57 | 775.21 | 770.8 | – | – | – | 1167 | 0.9923 | 0.9068 | 0.8212
[2], x1 = 0.2031 | 775.92 | 771.51 | 767.07 | – | – | – | 1172 | 0.9225 | 0.8458 | 0.7691
[2], x1 = 0.304 | 772.55 | 768.07 | 763.6 | – | – | – | 1178 | 0.8558 | 0.788 | 0.7202
[2], x1 = 0.405 | 770.25 | 765.74 | 761.26 | – | – | – | 1183 | 0.808 | 0.7464 | 0.6848
[2], x1 = 0.5061 | 768.4 | 763.87 | 759.36 | – | – | – | 1189 | 0.7632 | 0.7079 | 0.6525
[2], x1 = 0.6029 | 767.13 | 762.62 | 758.09 | – | – | – | 1195 | 0.7293 | 0.677 | 0.6248
[2], x1 = 0.6998 | 766.01 | 761.51 | 756.97 | – | – | – | 1200 | 0.6984 | 0.6477 | 0.5971
[2], x1 = 0.8016 | 765.34 | 760.87 | 756.37 | – | – | – | 1206 | 0.6857 | 0.6392 | 0.5927
[2], x1 = 0.9034 | 764.79 | 760.27 | 755.77 | – | – | – | 1212 | 0.6762 | 0.6323 | 0.5884
[2], x1 = 1 | 764.99 | 760.66 | 756.3 | – | – | – | 1217 | 0.6757 | 0.631 | 0.5902
